Assay results reported in ChEMBL document CHEMBL5131544, “Two-Photon Photodynamic Therapy Targeting Cancers with Low Carboxylesterase 2 Activity Guided by Ratiometric Fluorescence” (J Med Chem, 2022).
Activity calls are given as the source filed them. The calls are words filed in the database; no cut-off is given here.

Columns and labels:
PANC-1 [1] = assay: Induction of ROS production in human PANC-1 cells at 20 uM incubated for 3 hrs under 415 nm light irradiation by DCFH-DA staining based fluorescence microscopic analysis; type: functional, cell-based
MCF7 [2] = assay: Induction of ROS production in human MCF7 cells at 20 uM incubated for 3 hrs under 415 nm light irradiation by DCFH-DA staining based fluorescence microscopic analysis; type: functional, cell-based
[3] = Dark toxicity against human PANC-1 cells assessed as reduction in cell viability after 3 hrs by MTT assay; type: cell-based
PANC-1 [4] = assay: Phototoxicity against human PANC-1 cells assessed as reduction in cell viability after 3 hrs followed by compound washout and 415 nm light irradiation measured after overnight incubation by MTT assay; type: functional
[5] = Dark toxicity against human MCF7 cells assessed as reduction in cell viability after 3 hrs by MTT assay; type: cell-based
MCF7 [6] = assay: Phototoxicity against human MCF7 cells assessed as reduction in cell viability after 3 hrs followed by compound washout and 415 nm light irradiation measured after overnight incubation by MTT assay; type: functional
[7] = Dark toxicity against human A549 cells assessed as reduction in cell viability after 3 hrs by MTT assay; type: cell-based
[8] = Dark toxicity against human HepG2 cells assessed as reduction in cell viability after 3 hrs by MTT assay; type: cell-based
A549 = assay: Phototoxicity against human A549 cells assessed as reduction in cell viability after 3 hrs followed by compound washout and 415 nm light irradiation measured after overnight incubation by MTT assay; type: functional
HepG2 = assay: Phototoxicity against human HepG2 cells assessed as reduction in cell viability after 3 hrs followed by compound washout and 415 nm light irradiation measured after overnight incubation by MTT assay; type: functional; settings: HepG2, light or radiation study
PANC-1 [9] = assay: Induction of apoptosis in human PANC-1 cells at 20 uM preincubated for 3 hrs followed by compound washout and 415 nm light irradiation for 10 mins and measured after 20 mins post irradiation by Annexin V-FITC staining based assay; type: functional, cell-based
PANC-1 [10] = assay: Induction of apoptosis in human PANC-1 cells at 20 uM preincubated for 3 hrs followed by compound washout and 415 nm light irradiation for 10 mins and measured after 1 hr post irradiation by Annexin V-FITC staining based assay; type: functional, cell-based
PANC-1 [11] = assay: Induction of apoptosis in human PANC-1 cells at 20 uM preincubated for 3 hrs followed by compound washout and 415 nm light irradiation for 10 mins and measured after 4 to 24 hrs post irradiation by Annexin V-FITC staining based assay; type: functional, cell-based
PANC-1 [12] = assay: Induction of apoptosis in human PANC-1 cells assessed as caspase 3 cleavage at 20 uM preincubated for 3 hrs followed by compound washout and 415 nm light irradiation for 10 mins and measured after 20 to 1440 mins post irradiation by Western blot analysis; type: functional, cell-based
PANC-1 [13] = assay: Induction of apoptosis in human PANC-1 cells assessed as necrosis at 20 uM preincubated for 3 hrs followed by compound washout and 415 nm light irradiation for 10 mins and measured after 24 hrs post irradiation by Hoeschst-33342/PI staining based assay; type: functional, cell-based
PANC-1 [14] = assay: Induction of apoptosis in human PANC-1 cells assessed as shrinkage of cells at 20 uM preincubated for 3 hrs followed by compound washout and 415 nm light irradiation for 10 mins and measured after 24 hrs post irradiation by Hoeschst-33342/PI staining based assay; type: functional, cell-based
PANC-1 [15] = assay: Induction of apoptosis in human PANC-1 cells assessed as membrane decomposition at 20 uM preincubated for 3 hrs followed by compound washout and 415 nm light irradiation for 10 mins and measured after 24 hrs post irradiation by Hoeschst-33342/PI staining based assay; type: functional, cell-based
PANC-1 [16] = assay: Induction of ROS production in human PANC-1 cells at 20 uM preincubated for 3 hrs followed by compound washout and 900 nm light irradiation by DCFH-DA staining based two-photon fluorescence microscopy analysis; type: functional, cell-based
PANC-1 [17] = assay: Induction of cell morphological changes in human PANC-1 cells at 20 uM preincubated for 2 hrs followed by compound washout and 900 nm light irradiation measured after 1 hr post irradiation by two-photon based bright field imaging analysis; type: functional
PANC-1 [18] = assay: Induction of cell death in human PANC-1 cells assessed as reduction in cell viability preincubated for 2 hrs followed by compound washout and immediate 900 nm light irradiation and measured 1 hr post light irradiation by two-photon based ReadyProbes blue/green imaging analysis; type: functional
PANC-1 [19] = assay: Induction of cell death in human PANC-1 cells assessed as reduction in cell viability preincubated for 3 hrs followed by compound washout and immediate 900 nm light irradiation and measured 1 hr post light irradiation by two-photon based MTT assay; type: functional
PANC-1 [20] = assay: Antitumor activity against human PANC-1 tumor spheroids at 20 uM preincubated for 3 hrs followed by compound washout and 900 nm light irradiation by two-photon baseReadyProbes blue/green imaging analysis; type: functional, cell-based
PANC-1 [21] = assay: Induction of cell death in human PANC-1 cells assessed as […] cleavage at 20 uM after 6 hrs under 900 nm light irradiation by two-photon based Western blotting analysis; type: functional
[22] = Induction of ROS production in DBPS at pH 7.4 assessed as DCF production at 20 uM upon 415 nm light irradiation by fluorescence spectra analysis; type: functional
[23] = Induction of singlet oxygen production assessed as singlet oxygen quantum yield at 20 uM upon 415 nm light irradiation by ABDA assay; type: functional
[24] = Drug uptake in human PANC-1 cells at 0.5 to 20 uM after 3 hrs under 900 nm light irradiation by two-photon based fluorescence imaging assay; type: ADME, cell-based; settings: panc-1, 3 h, dose 0.5-20 µM
[25] = PANC-1, light or radiation study

Structure (SMILES): O=C(Nc1ccc2c3c(cccc13)C(=O)C=C2)c1ccccc1
- Activity (PANC-1 [1]): Active
- Activity (MCF7 [2]): Active
- CC50 at 3 h [3]: > 32 µM
- Activity (PANC-1 [4]; DDE = dose-dependent effect): Dde
- CC50 (PANC-1 [4]; [25]): 1.4 µM
- CC50 at 3 h [5]: > 32 µM
- Activity (MCF7 [6]; DDE = dose-dependent effect): Dde
- CC50 (MCF7 [6]; MCF7, light or radiation study): 1.6 µM
- CC50 at 3 h [7]: > 32 µM
- CC50 at 3 h [8]: > 32 µM
- CC50 (A549; A549, light or radiation study): 4.4 µM
- Activity (A549; DDE = dose-dependent effect): Dde
- CC50 (HepG2): > 32 µM
- Activity (PANC-1 [9]): Active
- Activity (PANC-1 [10]): Active
- Activity (PANC-1 [11]): Active
- Activity (PANC-1 [12]): Active
- Activity (PANC-1 [13]): Active
- Activity (PANC-1 [14]): Active
- Activity (PANC-1 [15]): Active
- Activity (PANC-1 [16]): Active
- Activity (PANC-1 [17]): Active
- Activity (PANC-1 [18]; DDE = dose-dependent effect): Dde
- CC50 (PANC-1 [18]; [25]): 0.647 µM
- Activity (PANC-1 [19]; DDE = dose-dependent effect): Dde
- CC50 (PANC-1 [19]; [25]): 0.647 µM
- Activity (PANC-1 [20]): Active
- Activity (PANC-1 [21]): Active
- Activity [22]: Active
- Activity [23]: 0.18
- Drug uptake [24]: Active
